Experimental findings from ChEMBL document CHEMBL4406913, “INCB050465 (Parsaclisib), a Novel Next-Generation Inhibitor of Phosphoinositide 3-Kinase Delta (PI3Kδ)” (ACS Med Chem Lett, 2019) are described below.

As usually defined, the Tmax is the time from dosing to the highest level. What is called IC50 is the concentration needed to halve the response being measured. As usually defined, the fraction unbound is the share of the substance not bound to proteins or other matrix.

The target of one data set is T1, Cytochrome P450 2B6 (Homo sapiens, UniProt P20813).
T1 sequence (P20813 whole entry): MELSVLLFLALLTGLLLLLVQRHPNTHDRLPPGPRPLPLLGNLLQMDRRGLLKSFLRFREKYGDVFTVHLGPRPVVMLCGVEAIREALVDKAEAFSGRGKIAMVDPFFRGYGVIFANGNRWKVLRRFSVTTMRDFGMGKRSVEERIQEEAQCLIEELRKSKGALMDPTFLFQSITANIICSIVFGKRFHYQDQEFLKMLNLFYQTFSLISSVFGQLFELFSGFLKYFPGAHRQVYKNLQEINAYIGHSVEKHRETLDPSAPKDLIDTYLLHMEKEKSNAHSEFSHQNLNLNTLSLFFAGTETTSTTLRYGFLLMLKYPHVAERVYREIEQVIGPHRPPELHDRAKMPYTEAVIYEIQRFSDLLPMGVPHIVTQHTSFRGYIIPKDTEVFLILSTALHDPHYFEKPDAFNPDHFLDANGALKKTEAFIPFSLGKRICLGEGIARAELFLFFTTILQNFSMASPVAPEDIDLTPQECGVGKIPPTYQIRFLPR
Nature of the data set: Inhibition of CYP2B6 in human liver microsomes at 0.1 to 25 uM using bupropion as substrate by LC/MS analysis. The data set is classed as ADME. For orientation: Liver microsomes are vesicles of endoplasmic reticulum, rich in cytochrome P450 enzymes.

Data set [1] is described as follows: Tmax in cynomolgus monkey at 4 mg/kg, po measured for 24 hrs by LC-MS/MS analysis. The conditions noted are these: in vivo. The class given is ADME, organism-based, Macaca fascicularis.
The target of a further data set is Cytochrome P450 3A4 (Homo sapiens, UniProt P08684). Nature of the data set: Inhibition of CYP3A4 in human liver microsomes at 0.1 to 25 uM using midazolam as substrate by LC/MS analysis. The class given is ADME.
Data set [2] in a line: Hepatotoxicity in Beagle dog measured on day 28. The class given is toxicity, Canis lupus familiaris. The conditions noted are these: in vivo.
The target in data set [3] is T2, Phosphatidylinositol 4,5-bisphosphate 3-kinase catalytic subunit delta isoform (Homo sapiens, UniProt O00329).
T2 sequence (O00329 whole entry): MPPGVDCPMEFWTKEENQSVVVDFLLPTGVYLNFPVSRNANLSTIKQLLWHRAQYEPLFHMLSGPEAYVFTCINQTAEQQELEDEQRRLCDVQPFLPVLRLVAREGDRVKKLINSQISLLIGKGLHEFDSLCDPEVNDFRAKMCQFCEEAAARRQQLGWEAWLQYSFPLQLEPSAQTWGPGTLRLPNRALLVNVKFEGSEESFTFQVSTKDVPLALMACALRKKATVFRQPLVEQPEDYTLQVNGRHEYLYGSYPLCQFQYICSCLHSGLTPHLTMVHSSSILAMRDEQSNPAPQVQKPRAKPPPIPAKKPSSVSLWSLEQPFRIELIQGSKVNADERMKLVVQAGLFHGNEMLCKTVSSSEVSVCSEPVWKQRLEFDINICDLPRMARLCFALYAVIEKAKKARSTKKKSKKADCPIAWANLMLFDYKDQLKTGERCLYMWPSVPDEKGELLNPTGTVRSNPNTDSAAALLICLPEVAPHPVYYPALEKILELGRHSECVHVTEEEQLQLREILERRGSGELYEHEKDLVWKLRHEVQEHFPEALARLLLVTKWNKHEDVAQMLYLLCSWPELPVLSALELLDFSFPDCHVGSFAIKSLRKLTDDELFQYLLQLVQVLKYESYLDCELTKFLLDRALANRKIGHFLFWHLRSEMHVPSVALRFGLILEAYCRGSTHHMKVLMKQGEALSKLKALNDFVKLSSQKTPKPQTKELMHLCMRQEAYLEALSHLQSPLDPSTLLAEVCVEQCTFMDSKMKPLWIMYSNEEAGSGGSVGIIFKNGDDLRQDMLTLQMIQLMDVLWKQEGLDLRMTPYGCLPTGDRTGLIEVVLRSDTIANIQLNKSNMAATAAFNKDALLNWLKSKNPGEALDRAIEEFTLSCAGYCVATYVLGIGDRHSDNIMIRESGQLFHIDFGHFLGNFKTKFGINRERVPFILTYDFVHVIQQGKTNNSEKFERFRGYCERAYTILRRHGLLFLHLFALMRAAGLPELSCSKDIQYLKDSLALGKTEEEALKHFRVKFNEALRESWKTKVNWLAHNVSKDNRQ
Nature of the data set: Inhibition of PI3Kdelta in human whole blood assessed as reduction in anti-IgE antibody-induced CD63 expression by flow cast kit method. The data set is classed as tissue-based.

Data set [4] can be described thus: Fractional unbound in human plasma. The class given is ADME, cell-free.
A short description of data set [5]: Terminal half life in cynomolgus monkey at 2 mg/kg, iv measured for 24 hrs by LC-MS/MS analysis. The conditions noted are these: in vivo, read-out: beta t1/2 (converted). The data set is classed as ADME, organism-based, Macaca fascicularis.
A further data set addresses T3, Cytochrome P450 2C8 (Homo sapiens, UniProt P10632).
T3 sequence (P10632 whole entry): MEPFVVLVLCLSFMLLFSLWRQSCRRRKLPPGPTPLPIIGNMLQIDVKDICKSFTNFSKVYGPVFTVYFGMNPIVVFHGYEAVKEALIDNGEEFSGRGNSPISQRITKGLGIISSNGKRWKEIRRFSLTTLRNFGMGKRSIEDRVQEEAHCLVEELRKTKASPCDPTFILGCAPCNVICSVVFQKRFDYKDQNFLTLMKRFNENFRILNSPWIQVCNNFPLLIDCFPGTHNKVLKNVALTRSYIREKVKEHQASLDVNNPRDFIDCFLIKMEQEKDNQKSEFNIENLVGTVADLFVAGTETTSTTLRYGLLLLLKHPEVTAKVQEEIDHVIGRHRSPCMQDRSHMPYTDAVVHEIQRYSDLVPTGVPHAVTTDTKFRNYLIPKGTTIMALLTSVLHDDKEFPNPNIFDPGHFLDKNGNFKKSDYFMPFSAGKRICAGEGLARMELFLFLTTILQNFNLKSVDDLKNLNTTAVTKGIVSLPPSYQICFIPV
Nature of the data set: Inhibition of CYP2C8 in human liver microsomes at 0.1 to 25 uM using amodiaquine as substrate by LC/MS analysis. The class given is ADME.

The subject of the next data set is SU-DHL-6. Briefly: Cytotoxicity against human SUDHL6 cells assessed as reduction in cell viability incubated for 4 days by celltiter glo luminescent assay. The data set is classed as functional, cell-based. The conditions noted are these: SU-DHL-6, 96 h. A general note: ATP-based viability assays read luminescence as a measure of living cells.
In data set [6] the target is T2, Phosphatidylinositol 4,5-bisphosphate 3-kinase catalytic subunit delta isoform.
Description: Inhibition of PI3Kdelta (unknown origin) using D-myophosphatidylinositol 4,5-bisphosphate as substrate incubated for 120 mins by [gamma-33P]ATP based SPA assay
A short description of data set [7]: Hepatotoxicity in rat measured on day 28. The class given is toxicity. The conditions noted are these: in vivo.

Sequence of Cytochrome P450 3A4 (P08684 whole entry): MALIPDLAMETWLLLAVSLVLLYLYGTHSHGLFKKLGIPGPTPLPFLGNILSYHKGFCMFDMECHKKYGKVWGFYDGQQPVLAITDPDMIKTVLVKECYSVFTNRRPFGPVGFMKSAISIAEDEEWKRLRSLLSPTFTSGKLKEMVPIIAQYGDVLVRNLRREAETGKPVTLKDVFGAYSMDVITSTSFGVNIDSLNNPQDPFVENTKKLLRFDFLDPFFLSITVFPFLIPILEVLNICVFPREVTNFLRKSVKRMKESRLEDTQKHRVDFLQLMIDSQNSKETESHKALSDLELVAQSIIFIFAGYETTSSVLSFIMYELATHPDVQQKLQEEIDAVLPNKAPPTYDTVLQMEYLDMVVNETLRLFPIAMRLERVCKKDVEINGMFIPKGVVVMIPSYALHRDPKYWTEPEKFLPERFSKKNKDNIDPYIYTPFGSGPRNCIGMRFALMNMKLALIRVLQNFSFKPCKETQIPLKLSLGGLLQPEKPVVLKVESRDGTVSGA

`CCOc1c([C@H](C)n2nc(C)c3c(N)ncnc32)cc(Cl)c(F)c1[C@@H]1CNC(=O)C1` [PARSACLISIB]: the “inhibition (INH)” value on Cytochrome P450 2B6, at Cytochrome P450 3A4 and against Cytochrome P450 2C8 was “Not Active” each time. In data set [1], the time of peak concentration (Tmax) stood at 2.5 h. Also, the Activity entry in data set [2] and in data set [7] was “Non-Toxic” throughout. For the same molecule, the half-maximal inhibitory concentration (IC50) in data set [3] is 2 nM; with SU-DHL-6 it was 1.6 nM; in [6], below 1 nM. In [4], the free fraction (fraction unbound) turned out to be 0.058. Besides, in [5], the half-life is 7.3 h.
